Laboratory results published in patent US20240336588A1, “COMPOSITIONS AND METHODS FOR ANTIOXIDANT AND ANTI-INFLAMMATORY THERAPEUTICS” (AVANTI BIOSCIENCES INC., priority 2021, published 2024).

Target: DYRK1A (HT-497, 6×His tagged rat truncated DYRK1A isoform X1 residues 1-497) (Rattus norvegicus (Rat), UniProt Q63470)
Assay: DYRK1A ELISA assay (HT-PRD phosphorylation)
Type: biochemical
Conditions: 100 µM ATP, 5 ng HT-497, 30 min at 30° C.
Procedure: Compounds of Table 1, above, were examined in vitro for activity against DYRK1A, DYRK1B, DYRK2 via an ELISA assay.
DYRK1A assay. […] After blocking, wells were washed extensively with dilution buffer before subjecting to phosphorylation. […] At the end point, wells were washed with ˜350 μl dilution buffer three times to terminate the reaction. […] Each point was run in quadruplicate with DMSO present in all assays at 0.2% final concentration. […] HT-PRD phosphorylation was subsequently determined by the sandwich antibody staining protocol, first with 100 μl mouse mAb 3D3 specific for detecting DYRK1A-phosphorylated PRD (60 min at room temperature) then with 100 μl alkaline phosphatase (AP)-linked anti-mouse secondary antibody (60 min at room temperature), followed by colorimetric reaction with 100 μl PNPP solution (PNPP substrate tablet, Thermo Fisher). […] The readings were then recorded for subsequent IC50 calculation. The DYRK1A assay protocol can also support DYRK1B and DYRK2 phosphorylation reactions in the enzyme concentration-dependent manner; therefore, the method was adapted for measuring the activity of candidate compounds against DYRK1B and DYRK2. For DYRK2, the reactions were performed as described above with 6 ng HT-DYRK2 (6×His tagged full-length human DYRK2 isoform 1). For DYRK1B, the assays were also similarly conducted but with 70 ng GST-DYRK1B (glutathione S-transferase tagged full length human DYRK1B isoform p65) and an extended kinase reaction time of 60 min.
Dilution factors for both mAb 3D3 and secondary antibody were pre-determined for each batch of antibody to ensure that neither antibody was limiting in the assay.
Data transformation, calculation, plotting, curve fitting, and IC 50 calculation were performed in KaleidaGraph (http://www.synergy.com/wordpress_650164087; Mac version 4.1). Data was corrected for background (readings from wells with only PNPP) before subsequent manipulations. […] The resulting residual activity was then plotted against its corresponding inhibitor concentrations in semi-log graph and the plot was fit to the sigmoidal equation, y=a+(b−a)/(1+(x/c)^d), for IC50 calculation.

| IC50 | SMILES |
| --- | --- |
| > 100 nM | O=C(O[C@@H]1Cc2c(O)cc(O)cc2O[C@H]1c1cc(O)c(O)c(O)c1)c1cc(OC(F)F)c(O)c(O)c1F [Compound 65, (2S,3R)-5,7-dihydroxy-2-(3,4,5-trihydroxyphenyl)chroman-3-yl 5-(difluoromethoxy)-2-fluoro-3,4-dihydroxybenzoate] |
| > 100 nM | Cc1cc(O)c(O)cc1[C@@H]1Oc2cc(O)cc(O)c2C[C@H]1OC(=O)c1cc(O)c(O)c(O)c1F [Compound 52, (2S,3R)-2-(4,5-dihydroxy-2-methylphenyl)-5,7-dihydroxychroman-3-yl 2-fluoro-3,4,5-trihydroxybenzoate] |
| > 1000 nM | O=C(O[C@@H]1Cc2c(O)cc(O)cc2O[C@H]1c1cc(O)c(O)c(O)c1)[C@H]1CC[C@H](O)CC1 [Compound 44, (2S,3R)-5,7-dihydroxy-2-(3,4,5-trihydroxyphenyl)chroman-3-yl (1r,4R)-4-hydroxycyclohexane-1-carboxylate] |
| > 100 nM | O=C(O[C@@H]1Cc2c(O)cc(O)cc2O[C@H]1c1cc(O)c(O)c(O)c1)c1cc(O)c(O)cc1C(F)(F)F [Compound 62, (2S,3R)-5,7-dihydroxy-2-(3,4,5-trihydroxyphenyl)chroman-3-yl 4,5-dihydroxy-2-(trifluoromethyl)benzoate] |
| > 100 nM | O=C(O[C@@H]1Cc2c(O)cc(O)cc2O[C@@H]1c1cc(O)c(O)c(O)c1)c1ccc(O)c(O)c1 [Compound 11, (2R,3R)-5,7-dihydroxy-2-(3,4,5-trihydroxyphenyl)chroman-3-yl 3,4-dihydroxybenzoate] |
| > 100 nM | CC(C)Oc1c(O)c(O)c(F)c(C(=O)O[C@@H]2Cc3c(O)cc(O)cc3O[C@H]2c2cc(O)c(O)c(O)c2)c1F [Compound 61, (2S,3R)-5,7-dihydroxy-2-(3,4,5-trihydroxyphenyl)chroman-3-yl 2,6-difluoro-3,4-dihydroxy-5-isopropoxybenzoate] |
| > 100 nM | O=C(O[C@@H]1Cc2c(O)cc(O)cc2O[C@@H]1c1ccc(O)c(O)c1)c1cc(O)c(O)c(O)c1 [Compound 6, (2R,3R)-2-(3,4-dihydroxyphenyl)-5,7-dihydroxychroman-3-yl 3,4,5-trihydroxybenzoate] |
| > 100 nM | O=C(O[C@H]1Cc2c(O)cc(O)cc2O[C@@H]1c1cc(O)c(O)c(O)c1)c1ccc(O)c(O)c1 [Compound 19, (2R,3S)-5,7-dihydroxy-2-(3,4,5-trihydroxyphenyl)chroman-3-yl 3,4-dihydroxybenzoate] |
| > 1000 nM | CS(=O)(=O)Nc1ccc(C(=O)O[C@@H]2Cc3c(O)cc(O)cc3O[C@H]2c2cc(O)c(O)c(O)c2)cc1O [Compound 37, (2S,3R)-5,7-dihydroxy-2-(3,4,5-trihydroxyphenyl)chroman-3-yl 3-hydroxy-4-(methylsulfonamido)benzoate] |
| > 1000 nM | Nc1ncc(C(=O)O[C@@H]2Cc3c(O)cc(O)cc3O[C@H]2c2cc(O)c(O)c(O)c2)cc1O [Compound 36, (2S,3R)-5,7-dihydroxy-2-(3,4,5-trihydroxyphenyl)chroman-3-yl 6-amino-5-hydroxynicotinate] |
| > 100 nM | O=C(O[C@@H]1Cc2ccccc2O[C@H]1c1cc(O)c(O)c(O)c1)c1cc(O)c(O)c(O)c1 [Compound 39, (2S,3R)-2-(3,4,5-trihydroxyphenyl)chroman-3-yl 3,4,5-trihydroxybenzoate] |
| > 1000 nM | O=C(N[C@H]1Cc2c(O)cc(O)cc2O[C@@H]1c1cc(O)c(O)c(O)c1)c1ccc(F)c(F)c1 [Compound 17, N-((2R,3S)-5,7-dihydroxy-2-(3,4,5-trihydroxyphenyl)chroman-3-yl)-3,4-difluorobenzamide] |
| > 1000 nM | O=C(O[C@H]1Cc2c(O)cc(O)cc2O[C@@H]1c1cc(O)c(O)c(O)c1)c1ccc(O)cc1 [Compound 20, (2R,3S)-5,7-dihydroxy-2-(3,4,5-trihydroxyphenyl)chroman-3-yl 4-hydroxybenzoate] |
| > 100 nM | O=C(O[C@@H]1Cc2c(O)cc(O)cc2O[C@H]1c1cc(O)c(O)c(O)c1)c1ccc(O)c(O)c1 [Compound 34, (2S,3R)-5,7-dihydroxy-2-(3,4,5-trihydroxyphenyl)chroman-3-yl 3,4-dihydroxybenzoate] |
| > 100 nM | O=C(O[C@@H]1Cc2c(O)cc(O)cc2O[C@H]1c1cc(O)c(O)cc1F)c1cc(O)c(O)c(O)c1 [Compound 45, (2S,3R)-2-(2-fluoro-4,5-dihydroxyphenyl)-5,7-dihydroxychroman-3-yl 3,4,5-trihydroxybenzoate] |
| > 1000 nM | O=C(O[C@@H]1Cc2c(O)cc(O)cc2O[C@@H]1c1cc(O)c(O)c(O)c1)c1ccc(O)cc1 [Compound 21, (2R,3R)-5,7-dihydroxy-2-(3,4,5-trihydroxyphenyl)chroman-3-yl 4-hydroxybenzoate] |
| > 1000 nM | O=C(O[C@H]1Cc2c(O)cc(O)cc2O[C@@H]1c1cc(O)c(O)c(O)c1)c1ccc(F)c(F)c1 [Compound 24, (2R,3S)-5,7-dihydroxy-2-(3,4,5-trihydroxyphenyl)chroman-3-yl 3,4-difluorobenzoate] |
| > 100 nM | CCC(=O)Oc1cc(O)c2c(c1)O[C@H](c1cc(O)c(O)c(O)c1)[C@H](OC(=O)c1cc(O)c(O)c(O)c1)C2 [Compound 69, (2R,3R)-5-hydroxy-7-(propionyloxy)-2-(3,4,5-trihydroxyphenyl)chroman-3-yl 3,4,5-trihydroxybenzoate] |
| > 100 nM | O=C(O[C@@H]1Cc2c(O)cc(O)cc2O[C@H]1c1cc(O)c(O)c(O)c1)c1ccc(O)c(O)c1O [Compound 38, (2S,3R)-5,7-dihydroxy-2-(3,4,5-trihydroxyphenyl)chroman-3-yl 2,3,4-trihydroxybenzoate] |
| > 100 nM | O=C(O[C@H]1Cc2c(O)cc(O)cc2O[C@@H]1c1cc(O)c(O)c(O)c1)c1cnc(O)c(O)c1 [Compound 27, (2R,3S)-5,7-dihydroxy-2-(3,4,5-trihydroxyphenyl)chroman-3-yl 5,6-dihydroxynicotinate] |
| > 1000 nM | O=C(N[C@H]1Cc2c(O)cc(O)cc2O[C@@H]1c1cc(O)c(O)c(O)c1)c1ccc(O)cc1 [Compound 16, N-((2R,3S)-5,7-dihydroxy-2-(3,4,5-trihydroxyphenyl)chroman-3-yl)-4-hydroxybenzamide] |
| > 100 nM | O=C(O[C@@H]1Cc2c(O)cc(O)cc2O[C@H]1c1cc(O)c(O)c(O)c1)c1cc(O)c(O)cc1F [Compound 41, (2S,3R)-5,7-dihydroxy-2-(3,4,5-trihydroxyphenyl)chroman-3-yl 2-fluoro-4,5-dihydroxybenzoate] |
| > 100 nM | Cc1c(C(=O)O[C@@H]2Cc3c(O)cc(O)cc3O[C@H]2c2cc(O)c(O)c(O)c2)ccc(O)c1O [Compound 63, (2S,3R)-5,7-dihydroxy-2-(3,4,5-trihydroxyphenyl)chroman-3-yl 3,4-dihydroxy-2-methylbenzoate] |

| SMILES | IC50 |
| --- | --- |
| CCNC(=O)Oc1cc(C(=O)O[C@@H]2Cc3c(O)cc(O)cc3O[C@@H]2c2cc(O)c(O)c(O)c2)cc(O)c1O [Compound 12, (2R,3R)-5,7-dihydroxy-2-(3,4,5-trihydroxyphenyl)chroman-3-yl 3-((ethylcarbamoyl)oxy)-4,5-dihydroxybenzoate] | > 100 nM |
| O=C(O[C@@H]1Cc2c(O)cc(O)cc2O[C@@H]1c1cc(O)c(O)c(O)c1)c1ccncc1 [Compound 23, (2R,3R)-5,7-dihydroxy-2-(3,4,5-trihydroxyphenyl)chroman-3-yl isonicotinate] | > 1000 nM |
| O=C(O[C@@H]1Cc2c(O)cc(O)cc2O[C@@H]1c1cc(O)c(O)c(O)c1)c1ccn(O)c(=O)c1 [Compound 26, (2R,3R)-5,7-dihydroxy-2-(3,4,5-trihydroxyphenyl)chroman-3-yl 1-hydroxy-2-oxo-1,2-dihydropyridine-4-carboxylate] | > 1000 nM |
| COc1c(O)c(O)c(F)c(C(=O)O[C@@H]2Cc3c(O)cc(O)cc3O[C@H]2c2ccc(O)c(O)c2)c1F [Compound 64, (2S,3R)-2-(3,4-dihydroxyphenyl)-5,7-dihydroxychroman-3-yl 2,6-difluoro-3,4-dihydroxy-5-methoxybenzoate] | > 100 nM |
| O=C(O[C@@H]1Cc2c(O)cc(O)cc2O[C@H]1c1ccc(O)c(O)c1)c1ccc(O)c(O)c1 [Compound 31, (2S,3R)-2-(3,4-dihydroxyphenyl)-5,7-dihydroxychroman-3-yl 3,4-dihydroxybenzoate] | > 100 nM |
| CCNC(=O)Oc1cc(O)c2c(c1)O[C@H](c1cc(O)c(O)c(O)c1)[C@H](OC(=O)c1cc(O)c(O)c(O)c1)C2 [Compound 70, (2R,3R)-7-((ethylcarbamoyl)oxy)-5-hydroxy-2-(3,4,5-trihydroxyphenyl)chroman-3-yl 3,4,5-trihydroxybenzoate] | > 100 nM |
| O=C(O[C@H]1Cc2c(O)cc(O)cc2O[C@@H]1c1cc(O)c(O)c(O)c1)c1ccncc1 [Compound 22, (2R,3S)-5,7-dihydroxy-2-(3,4,5-trihydroxyphenyl)chroman-3-yl isonicotinate] | > 1000 nM |
